Data from patent US12162872B2, “Cycloalkylurea derivative” (Sumitomo Pharma Co., Ltd., priority 2019, dated 2024).

Molecular target: T1, Human orexin receptor type 2 (Homo sapiens, UniProt O43614)
T1 construct: expressed in transfected cells; host or cells: CHO cells (transient expression)
T1 sequence (O43614 1-444): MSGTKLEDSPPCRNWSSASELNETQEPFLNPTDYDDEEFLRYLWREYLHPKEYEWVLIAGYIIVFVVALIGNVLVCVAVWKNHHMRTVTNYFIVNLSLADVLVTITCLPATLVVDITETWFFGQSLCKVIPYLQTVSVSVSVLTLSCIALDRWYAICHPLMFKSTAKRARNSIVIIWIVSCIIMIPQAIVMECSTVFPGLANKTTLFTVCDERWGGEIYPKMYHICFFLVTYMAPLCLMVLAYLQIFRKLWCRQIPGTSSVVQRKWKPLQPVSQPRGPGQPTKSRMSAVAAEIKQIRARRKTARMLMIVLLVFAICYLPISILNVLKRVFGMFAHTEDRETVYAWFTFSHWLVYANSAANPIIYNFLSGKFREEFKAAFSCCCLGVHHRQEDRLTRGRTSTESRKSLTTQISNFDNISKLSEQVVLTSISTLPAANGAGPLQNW
Assay: Test 1: Evaluation of agonist activity for orexin receptor type 2 (aequorin luminescence, intracellular calcium mobilization in CHO cells)
Format: cell-based
Conditions: relative percentage of luminescence for the luminescence (100%) of Orexin A (100 pM); CHO cells transiently expressing human orexin receptor type 2 and apoaequorin; Orexin A Lot. 641114
Summary of the method: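 CHO cells transiently expressing human OX2 receptor and apoaequorin, seeded 16-22 h, loaded with 1 μM coelenterazine hcp for 2 h at room temperature. Compound added in Hanks/20 mM HEPES/0.1% BSA, 0.1% DMSO final, and calcium luminescence measured. Activity expressed as percent of the 100 pM Orexin A response.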

SMILES | agonist activity (%)
Cc1ccc(C2(C)CCN(C(=O)N[C@@H]3[C@@H](N4CC5CC(C4)N5C(C)C)CCCC3(F)F)CC2)cc1 [Example 61, N-{(1R,6S)-2,2-difluoro-6-[6-(propan-2-yl)-3,6-diazabicyclo[3.1.1]heptan-3-yl]cyclohexyl}-4-methyl-4-(4-methylphenyl)piperidine-1-carboxamide] | 169
CC(C)N1CCN([C@H]2CCCC(F)(F)[C@@H]2NC(=O)N2CCC(c3ncccn3)CC2)CC1 (racemic) [Example 36, rac-N-{(1R,6S)-2,2-difluoro-6-[4-(propan-2-yl)piperazin-1-yl]cyclohexyl}-4-(pyrimidin-2-yl)piperidine-1-carboxamide] | 114
CC(C)N1CC[C@H](O[C@H]2CCCC(F)(F)[C@@H]2NC(=O)N2CCC(C)(c3noc([C@@H]4C[C@@H]4F)n3)CC2)C1 [Example 72, N-[(1R,6S)-2,2-difluoro-6-{[(3S)-1-(propan-2-yl)pyrrolidin-3-yl]oxy}cyclohexyl]-4-{5-[(1S,2S)-2-fluorocyclopropyl]-1,2,4-oxadiazol-3-yl}-4-methylpiperidine-1-carboxamide] | 146
CC(C)N1CCN([C@H]2CCCC(F)(F)[C@@H]2NC(=O)N2CCC(c3ccc(C(F)(F)F)cn3)CC2)CC1 (racemic) [Example 55, rac-N-{(1R,6S)-2,2-difluoro-6-[4-(propan-2-yl)piperazin-1-yl]cyclohexyl}-4-[5-(trifluoromethyl)pyridin-2-yl]piperidine-1-carboxamide] | 95
CC(C)N1CCN([C@H]2CCCC(F)(F)[C@@H]2NC(=O)N2CCC(C)(C3CCCC3)CC2)CC1 (racemic) [Example 26, rac-4-cyclopentyl-N-{(1R,6S)-2,2-difluoro-6-[4-(propan-2-yl)piperazin-1-yl]cyclohexyl}-4-methylpiperidine-1-carboxamide] | 198
Cc1ccc(C2(C)CCN(C(=O)N[C@@H]3[C@@H](N4CCN(C(C)C)CC4)CCCC3(F)F)CC2)cc1 [Example 49, N-{(1R,6S)-2,2-difluoro-6-[4-(propan-2-yl)piperazin-1-yl]cyclohexyl}-4-methyl-4-(4-methylphenyl)piperidine-1-carboxamide] | 151
CC(C)c1ccc(C2=CCCCC2NC(=O)N2CCC(C)(c3noc(C4CC4)n3)CC2)cn1 (racemic) [Example 16, rac-4-(5-cyclopropyl-1,2,4-oxadiazol-3-yl)-4-methyl-N-{2-[6-(propan-2-yl)pyridin-3-yl]cyclohex-2-en-1-yl}piperidine-1-carboxamide] | 39
Cc1nc(C2(C)CCN(C(=O)O[C@@H]3[C@@H](N4CCN(C(C)C)CC4)CCCC3(F)F)CC2)no1 (racemic) [Example 10, rac-(1R,6S)-2,2-difluoro-6-[4-(propan-2-yl)piperazin-1-yl]cyclohexyl 4-methyl-4-(5-methyl-1,2,4-oxadiazol-3-yl)piperidine-1-carboxylate] | 213
CC(C)N1CCN([C@H]2CCCC(F)(F)[C@@H]2NC(=O)N2CCC(c3ccccc3)CC2)CC1 (racemic) [Example 38, rac-N-{(1R,6S)-2,2-difluoro-6-[4-(propan-2-yl)piperazin-1-yl]cyclohexyl}-4-phenylpiperidine-1-carboxamide] | 142
CC(C)N1CCN([C@H]2CCCC(F)(F)[C@@H]2NC(=O)N2CCC(C)(c3csc(C4CC4)n3)CC2)CC1 (racemic) [Example 47, rac-4-(2-cyclopropyl-1,3-thiazol-4-yl)-N-{(1R,6S)-2,2-difluoro-6-[4-(propan-2-yl)piperazin-1-yl]cyclohexyl}-4-methylpiperidine-1-carboxamide] | 163
CC(C)N1CCN([C@H]2CCCC(F)(F)[C@@H]2NC(=O)N2CCC(O)(c3ccc(Cl)cc3)CC2)CC1 (racemic) [Example 41, rac-4-(4-chlorophenyl)-N-{(1R,6S)-2,2-difluoro-6-[4-(propan-2-yl)piperazin-1-yl]cyclohexyl}-4-hydroxypiperidine-1-carboxamide] | 23
CC(C)N1CCN([C@H]2CCCC(F)(F)[C@@H]2OC(=O)N2CCC(C)(c3noc(C4CC4)n3)CC2)CC1 (racemic) [Example 9, rac-(1R,6S)-2,2-difluoro-6-[4-(propan-2-yl)piperazin-1-yl]cyclohexyl 4-(5-cyclopropyl-1,2,4-oxadiazol-3-yl)-4-methylpiperidine-1-carboxylate] | 207
CC(C)N1CCN([C@H]2CCCC(F)(F)[C@@H]2NC(=O)N2CCC(C)(c3ncc(C4CC4)s3)CC2)CC1 (racemic) [Example 48, rac-4-(5-cyclopropyl-1,3-thiazol-2-yl)-N-{(1R,6S)-2,2-difluoro-6-[4-(propan-2-yl)piperazin-1-yl]cyclohexyl}-4-methylpiperidine-1-carboxamide] | 156
CC(C)N1CCN([C@H]2CCCC(F)(F)[C@@H]2NC(=O)N2CCC(C)(c3ccccc3)CC2)CC1 (racemic) [Example 39, rac-N-{(1R,6S)-2,2-difluoro-6-[4-(propan-2-yl)piperazin-1-yl]cyclohexyl}-4-methyl-4-phenylpiperidine-1-carboxamide] | 157
CC(C)N1CC=C(C2=CCCCC2NC(=O)N2CCC(C)(c3noc(C4CC4)n3)CC2)CC1 (racemic) [Example 18, rac-4-(5-Cyclopropyl-1,2,4-oxadiazol-3-yl)-4-methyl-N-{2-[1-(propan-2-yl)-1,2,3,6-tetrahydropyridin-4-yl]cyclohex-2-en-1-yl}piperidine-1-carboxamide] | 73
CC(C)N1C[C@@H](O[C@H]2CCCC(F)(F)[C@@H]2NC(=O)N2CCC(C)(c3noc(C4CC4)n3)CC2)C(F)(F)C1 [Example 76, 4-(5-cyclopropyl-1,2,4-oxadiazol-3-yl)-N-[(1R,6S)-6-{[(3R)-4,4-difluoro-1-(propan-2-yl)pyrrolidin-3-yl]oxy}-2,2-difluorocyclohexyl]-4-methylpiperidine-1-carboxamide] | 145

Second part, the compound after the results:

agonist activity (%) | SMILES
163 | CC(C)N1CCN([C@@H]2CCCC(F)(F)[C@H]2NC(=O)N2CCC(C)(c3cc(C4CC4)on3)CC2)CC1 [Example 22, 4-(5-cyclopropyl-1,2-oxazol-3-yl)-N-{(1S,6R)-2,2-difluoro-6-[4-(propan-2-yl)piperazin-1-yl]cyclohexyl}-4-methylpiperidine-1-carboxamide]
190 | CCc1nc(C2(C)CCN(C(=O)N[C@@H]3[C@@H](N4CCN(C(C)C)CC4)CCCC3(F)F)CC2)no1 (racemic) [Example 28, rac-N-{(1R,6S)-2,2-difluoro-6-[4-(propan-2-yl)piperazin-1-yl]cyclohexyl}-4-(5-ethyl-1,2,4-oxadiazol-3-yl)-4-methylpiperidine-1-carboxamide]
160 | CC(C)N1CCN([C@H]2CCCC(F)(F)[C@@H]2NC(=O)N2CCC(C)(c3cc(C4CC4)on3)CC2)CC1 (racemic) [Example 20, rac-4-(5-cyclopropyl-1,2-oxazol-3-yl)-N-{(1R,6S)-2,2-difluoro-6-[4-(propan-2-yl)piperazin-1-yl]cyclohexyl}-4-methylpiperidine-1-carboxamide]
104 | CC(C)N1CCN([C@@H]2CCCC(F)(F)[C@H]2NC(=O)N2CCC(C)(c3noc(C4CC4)n3)CC2)CC1 [Example 23, 4-(5-cyclopropyl-1,2,4-oxadiazol-3-yl)-N-{(1S,6R)-2,2-difluoro-6-[4-(propan-2-yl)piperazin-1-yl]cyclohexyl}-4-methylpiperidine-1-carboxamide]
191 | CC(C)N1CCN([C@H]2CCCC(F)(F)[C@@H]2NC(=S)N2CCC(C)(c3noc(C4CC4)n3)CC2)CC1 (racemic) [Example 79, rac-4-(5-cyclopropyl-1,2,4-oxadiazol-3-yl)-N-{(1R,6S)-2,2-difluoro-6-[4-(propan-2-yl)piperazin-1-yl]cyclohexyl}-4-methylpiperidine-1-carbothioamide]
156 | CC(C)N1CCN([C@H]2CCCC(F)(F)[C@@H]2NC(=O)N2CCC(C)(c3noc([C@H]4C[C@H]4C)n3)CC2)CC1 [Example 68, N-{(1R,6S)-2,2-difluoro-6-[4-(propan-2-yl)piperazin-1-yl]cyclohexyl}-4-methyl-4-{5-[(1S,2R)-2-methylcyclopropyl]-1,2,4-oxadiazol-3-yl}piperidine-1-carboxamide]
174 | CC(C)N1CC[C@H](O[C@H]2CCCC(F)(F)[C@@H]2NC(=O)N2CCC(C)(c3noc([C@@H]4C[C@@H]4C)n3)CC2)C1 [Example 74, N-[(1R,6S)-2,2-difluoro-6-{[(3S)-1-(propan-2-yl)pyrrolidin-3-yl]oxy}cyclohexyl]-4-methyl-4-(5-[(1R,2S)-2-methylcyclopropyl]-1,2,4-oxadiazol-3-yl)piperidine-1-carboxamide]
167 | CC(C)N1CCN([C@H]2CCCC(F)(F)[C@@H]2NC(=O)N2CCC(C)(c3noc(C4CC4)n3)CC2)CC1 (racemic) [Example 19, rac-4-(5-Cyclopropyl-1,2,4-oxadiazol-3-yl)-N-{(1R,6S)-2,2-difluoro-6-[4-(propan-2-yl)piperazin-1-yl]cyclohexyl}-4-methylpiperidine-1-carboxamide]
